Results on six compounds are retold here after US20200398077A1, “SYSTEM AND METHOD TO ERADICATE A MAJORITY OF DISEASE-CAUSING GERMS AND PRODUCE AVIRULENT PHENOTYPE SURVIVORS SUSCEPTIBLE TO MICROBICIDES USING A LIGHT DOSE REGIMENT” (priority 2019, published 2020).

The test system of test [1] is S. aureus ATCC 33592 (MRSA) Parental Wild-Type. Kind of test: Kirby-Bauer zones of inhibition (ZOI) antibiotic susceptibility assay, untreated MRSA parent strain. As to Susceptibility class (CLSI): key: R = resistant; S = susceptible. It is filed as cell-based. To be noted: for Resistance/susceptibility in words (heatmap profile, FIG. 8): Parental Wild-Type, panel 120, CLSI M100-ED29:2019; for Susceptibility class (CLSI) / Zone diameter: S. aureus ATCC 33592 (MRSA), untreated parent, Kirby-Bauer ZOI. As for the experimental part: (§1) Table 7 below show and example of a Clinical laboratories Science Institute (CLSI) reference table typically used by clinicians and clinical microbiology laboratories to establish whether a clinical isolate is susceptible, intermediate or resistant to a particular type of antibiotic under the Kirby-Bauer ZOI assay:
(§2) In one example, the Kirby-bauer Zones of Inhibition (Z01) assay was performed on the untreated MRSA parent strain and the two generations of the depigmented avirulent phenotype survivors susceptible to microbicides were created by applying the light dose regiment of system 10 and the method thereof discussed above based on the CLSI guidelines, See Table 8 below:
(§3) The first generation (G1) is the avirulent phenotype survivors susceptible to microbicides created by system 10 and the method thereof and the second generation (G2) is the avirulent phenotype survivors susceptible to microbicides created by system 10 and the method thereof. In this example, the ZOI for Linezolid is indicated at 90, the ZOI for Norfloxacin is indicated at 92, the ZOI for Cefprozil is indicated at 94, ZOEs 96 and 98 are blank, ZOI 100 is for Rifampin, ZIO 102 is for Oxacillin and ZOI 104 is for Tetracycline. The growth control for Generation 1 (G1), Generation 2 (G2) and the wild type (WT) is indicated at 106, 108 and 110, respectively. In this example, Methicillin Resistant, S. aureus ATCC 33592. In this example, WT is Oxacillin is considered equivalent to methicillin when describing a MRSA strain. In this example, the ZOIs were measured at 24 hours and 72-hours past-challenge. Generation 1 was serially passaged onto an antibiotic-free TSA plate, then transferred to TSB liquid culture prior to performing the ZOI assay. Generation 2 was transferred from Generation 1, serially passaged onto an antibiotic-free TSA plate, then transferred to a TSB liquid culture prior to performing the ZOI assay. […] Thus, the avirulent phenotype survivors susceptible to microbicides are stable over multiple generations.
(§4) See e.g., Clinical and Laboratory Standards Institute, Performance Standards for Antimicrobial Susceptibility Testing, 29th Edition 950 West Valley Road Suite 2500, Wayne, Pa. 19087 USA, in this example Oxacillin is synonymous with methicillin when describing MRSA.

The subject of test [2] is Depigmented Generation 1 avirulent phenotype survivors (MRSA G1). Kind of test: Kirby-Bauer zones of inhibition (ZOI) antibiotic susceptibility assay, depigmented survivor Generation 1. As to Susceptibility class (CLSI): key: R = resistant; S = susceptible. In kind it is cell-based, S. aureus. To be noted: for Susceptibility class (CLSI) / Zone diameter: Depigmented Generation 1 after light dose regiment, Kirby-Bauer ZOI; for Resistance/susceptibility in words (heatmap profile, FIG. 8): MRSA G1 (Generation 1), panel 122, after light dose regiment. The protocol:
as §1, §2, §3, §4

Test [3] has as its system Depigmented Generation 2 avirulent phenotype survivors (MRSA G2). Kind of test: Kirby-Bauer zones of inhibition (ZOI) antibiotic susceptibility assay, depigmented survivor Generation 2. As to Susceptibility class (CLSI): key: R = resistant; S = susceptible. In kind it is cell-based, S. aureus. To be noted: for Susceptibility class (CLSI) / Zone diameter: Depigmented Generation 2 after light dose regiment, Kirby-Bauer ZOI; for Resistance/susceptibility in words (heatmap profile, FIG. 8): MRSA G2 (Generation 2), panel 124, after light dose regiment. The protocol: as §1, §2, §3, §4

Regarding `CC=CC1=C(C(=O)O)N2C(=O)[C@@H](NC(=O)[C@H](N)c3ccc(O)cc3)[C@H]2SC1` [Cefprozil], in test [1], the “Resistance/susceptibility in words (heatmap profile, FIG. 8)” value (“Resistance/susceptibility in words” for short) is listed as “resistant”; the “Susceptibility class (CLSI)” value was “R”; the Zone diameter result is reported as “No Inhibition”. In addition, in test [2], the “Susceptibility class (CLSI)” value is given as “S”; the Zone diameter worked out at 42.99 mm; the “Resistance/susceptibility in words” value was “susceptible”. Also, in test [3], the “Susceptibility class (CLSI)” value is given as “S”; the Zone diameter is reported as 42.98 mm; the “Resistance/susceptibility in words” value is reported as “susceptible”.

`CC(=O)NC[C@H]1CN(c2ccc(N3CCOCC3)c(F)c2)C(=O)O1` [Linezolid]: the “Resistance/susceptibility in words” value in test [1] was “susceptible”. Besides, the “Susceptibility class (CLSI)” value in test [1], in test [2] and in test [3] was “S” each time. For the same compound, the Zone diameter in test [1] stood at 31.33 mm; in test [2], 35.11 mm; in test [3] it was 32.8 mm.

As for `CCn1cc(C(=O)O)c(=O)c2cc(F)c(N3CCNCC3)cc21` [Norfloxacin], in test [1], the “Resistance/susceptibility in words” value is listed as “susceptible”; the “Susceptibility class (CLSI)” value is reported as “S”; the Zone diameter turned out to be 27.67 mm. In addition, in test [2], the “Susceptibility class (CLSI)” value is recorded as “S” and the Zone diameter is given as 32.68 mm. In test [3], the “Susceptibility class (CLSI)” value is “S” and the Zone diameter is listed as 30.17 mm.

With `Cc1onc(-c2ccccc2)c1C(=O)N[C@@H]1C(=O)N2[C@@H]1SC(C)(C)[C@@H]2C(=O)O` [Oxacillin], in test [1], the “Resistance/susceptibility in words” value is “resistant”; the “Susceptibility class (CLSI)” value was “R”; the Zone diameter entry is “No Inhibition”. In test [2], the “Susceptibility class (CLSI)” value is listed as “S”; the Zone diameter is on record as 28.04 mm; the “Resistance/susceptibility in words” value is given as “susceptible”. Also, in test [3], the “Susceptibility class (CLSI)” value was “S”; the Zone diameter came to 27.25 mm; the “Resistance/susceptibility in words” value is “susceptible”.

Turning to `CO[C@H]1/C=C/O[C@@]2(C)Oc3c(C)c(O)c4c(O)c(c(/C=N/N5CCN(C)CC5)c(O)c4c3C2=O)NC(=O)/C(C)=C\C=C\[C@H](C)[C@H](O)[C@@H](C)[C@@H](O)[C@@H](C)[C@H](OC(C)=O)[C@@H]1C` [Rifampin], in test [1], the “Resistance/susceptibility in words” value is “resistant”; the “Susceptibility class (CLSI)” value was “R”; the Zone diameter result is on record as “No Inhibition”. In addition, in test [2], the “Susceptibility class (CLSI)” value is listed as “S”; the Zone diameter turned out to be 45.04 mm; the “Resistance/susceptibility in words” value was “susceptible”. In test [3], the “Susceptibility class (CLSI)” value was “S”; the Zone diameter was 48.68 mm; the “Resistance/susceptibility in words” value was “susceptible”.

`CN(C)[C@@H]1C(O)=C(C(N)=O)C(=O)[C@@]2(O)C(O)=C3C(=O)c4c(O)cccc4[C@@](C)(O)[C@H]3C[C@@H]12` [Tetracycline]: the “Susceptibility class (CLSI)” value is on record as “R” in test [1], “S” in test [2] and “S” in test [3]. Also, the results for the Zone diameter in test [2] and in test [3] were 34.66 mm and 31.31 mm, respectively.
